Experimental data as given in ChEMBL document CHEMBL1201862, “PubChem BioAssay data set” (2004).
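Briefly, cells in 96-well plates were exposed to five compound concentrations for 48 h, and endpoints were estimated by linear interpolation. GI50 is the concentration that inhibits growth by half.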 Active and inactive are the calls of the source. Rule as the data show it: active = GI50 up to about 1.1 µM and inactive = higher.

How the values were obtained:
Assay in all cases: inhibition of tumour cell growth, NCI panel, 48 h
SK-MEL-5 = tested on: SK-MEL-5
K562 = tested on: K562
MDA-MB-231 = tested on: MDA-MB-231
MOLT-4 = tested on: MOLT-4
HCC 2998 = tested on: HCC 2998
NCI-H460 = tested on: NCI-H460
DLD-1 = tested on: DLD-1
HOP-62 = tested on: HOP-62
NCI-H522 = tested on: NCI-H522
HL-60 = tested on: HL-60
T47D = tested on: T47D
HCT-116 = tested on: HCT-116
TK-10 = tested on: TK-10
SF-295 = tested on: SF-295
NCI-H226 = tested on: NCI-H226
NCI-H23 = tested on: NCI-H23
OVCAR-8 = tested on: OVCAR-8
OVCAR-3 = tested on: OVCAR-3
HT-29 = tested on: HT-29
BT-549 = tested on: BT-549

Row | Compound | GI50 (SK-MEL-5) | GI50 (K562) | GI50 (MDA-MB-231) | GI50 (MOLT-4) | GI50 (HCC 2998) | GI50 (NCI-H460) | GI50 (DLD-1) | GI50 (HOP-62) | GI50 (NCI-H522) | GI50 (HL-60) | GI50 (T47D) | GI50 (HCT-116) | GI50 (TK-10) | GI50 (SF-295) | GI50 (NCI-H226) | GI50 (NCI-H23) | GI50 (OVCAR-8) | GI50 (OVCAR-3) | GI50 (HT-29) | GI50 (BT-549)
1 | CCCCCC(=O)OC[n+]1ccc2c(C)c3[nH]c4ccc(OC)cc4c3c(C)c2c1 | 1.57 µM (inactive) | 0.0632 µM (active) | 0.244 µM (active) | 0.0419 µM (active) | 0.543 µM (active) | 0.0325 µM (active) | 0.137 µM (active) | 0.586 µM (active) | 0.566 µM (active) | 0.241 µM (active) | 1.02 µM (active) | 0.0482 µM (active) | 2.55 µM (inactive) | 0.395 µM (active) | 0.276 µM (active) | 0.361 µM (active) | 0.112 µM (active) | > 100 µM (inactive) | 0.0897 µM (active) | –
2 | Cc1c(CNc2ccc(Cl)c(C(=O)NC(CC(=O)O)C(=O)O)c2)ccc2nc(N)nc(N)c12 (stereo unspecified) | 0.148 µM (active) | < 0.12 µM (active) | > 100 µM (inactive) | – | 0.256 µM (active) | 0.0352 µM (active) | 0.0631 µM (active) | 0.256 µM (active) | 3.83 µM (inactive) | 2.42 µM (inactive) | > 100 µM (inactive) | < 0.01 µM (active) | 5.12 µM (inactive) | 0.126 µM (active) | > 100 µM (inactive) | 0.142 µM (active) | 0.0399 µM (active) | 6.46 µM (inactive) | < 0.0208 µM (active) | 33.3 µM (inactive)
3 | CN1CCN(c2ccc3[nH]c(-c4ccc5[nH]c(-c6ccc(O)cc6)nc5c4)nc3c2)CC1 | 11.8 µM (inactive) | 23.3 µM (inactive) | 481 µM (inactive) | 29.1 µM (inactive) | 151 µM (inactive) | – | 178 µM (inactive) | 250 µM (inactive) | 9.82 µM (inactive) | 11.9 µM (inactive) | 9.4 µM (inactive) | 13.5 µM (inactive) | 705 µM (inactive) | – | 170 µM (inactive) | 240 µM (inactive) | – | – | 92.7 µM (inactive) | 455 µM (inactive)
4 | N#CCCN(c1ccc(/C=C2\N=C(Cc3ccccc3)OC2=O)cc1)S(=O)(=O)c1ccccc1 | > 100 µM (inactive) | > 100 µM (inactive) | – | > 100 µM (inactive) | > 100 µM (inactive) | > 100 µM (inactive) | > 100 µM (inactive) | > 100 µM (inactive) | > 100 µM (inactive) | > 100 µM (inactive) | – | > 100 µM (inactive) | > 100 µM (inactive) | > 100 µM (inactive) | > 100 µM (inactive) | > 100 µM (inactive) | > 100 µM (inactive) | > 100 µM (inactive) | > 100 µM (inactive) | –
